Where a name gives a salt, the structure may show the parent alone.
Tests used:
[1] = target: T1, human adenosine A2a receptor (Homo sapiens, UniProt P29274); assay: Adenosine A2a Receptor Functional Assay (A2AGAL2); type: cell-based; conditions: CHO-K1 cells overexpressing human A2a receptor, cAMP inducible beta-galactosidase reporter, 15 nM NECA agonist challenge
T1 construct: expressed in transfected cells; host or cells: CHO-K1 cells with a cAMP inducible beta-galactosidase reporter gene
Protocol: Adenosine A2a Receptor Functional Assay (A2AGAL2)
(§1) To initiate the functional assay, cryopreserved CHO—K1 cells overexpressing the human adenosine A2a receptor and containing a cAMP inducible beta-galactosidase reporter gene were thawed, centrifuged, DMSO containing media removed, and then seeded with fresh culture media into clear 384-well tissue culture treated plates (BD #353961) at a concentration of 10K cells/well. Prior to assay, these plates were cultured for two days at 37° C., 5% CO2, 90% Rh. On the day of the functional assay, culture media was removed and replaced with 45 uL assay medium (Hams/F-12 Modified (Mediatech #10-080CV) supplemented w/0.1% BSA). Test compounds were diluted and 11 point curves created at a 1000× concentration in 100% DMSO. Immediately after addition of assay media to the cell plates, 50 nL of the appropriate test compound antagonist or agonist control curves were added to cell plates using a Cartesian Hummingbird. Compound curves were allowed to incubate at room temperature on cell plates for approximately 15 minutes before addition of a 15 nM NECA (Sigma E2387) agonist challenge (5 uL volume). A control curve of NECA, a DMSO/Media control, and a single dose of Forskolin (Sigma F3917) were also included on each plate. After additions, cell plates were allowed to incubate at 37° C., 5% CO2, 90% Rh for 5.5-6 hours. After incubation, media was removed, and cell plates were washed 1× 50 uL with DPBS w/o Ca & Mg (Mediatech 21-031-CV). Into dry wells, 20 uL of 1× Reporter Lysis Buffer (Promega E3971 (diluted in dH2O from 5× stock)) was added to each well and plates frozen at −20° C. overnight. For β-galactosidase enzyme calorimetric assay, plates were thawed out at room temperature and 20 μL 2× assay buffer (Promega) was added to each well. Color was allowed to develop at 37° C., 5% CO2, 90% Rh for 1-1.5 h or until reasonable signal appeared. The calorimetric reaction was stopped with the addition of 60 μL/well 1M sodium carbonate. Plates were counted at 405 nm on a SpectraMax Microplate Reader (Molecular Devices). Data was analyzed in Microsoft Excel and IC/EC50 curves were fit using a standardized macro.

[2] = target: T2, human adenosine A1 receptor (Homo sapiens, UniProt P30542); assay: Adenosine A1 Receptor Functional Assay (A1GAL2); type: cell-based; conditions: CHO-K1 cells overexpressing human A1 receptor, cAMP inducible beta-galactosidase reporter, 4 nM r-PIA/1 uM Forskolin agonist challenge
T2 construct: expressed in transfected cells; host or cells: CHO-K1 cells with a cAMP inducible beta-galactosidase reporter gene
T2 sequence (P30542 1-326): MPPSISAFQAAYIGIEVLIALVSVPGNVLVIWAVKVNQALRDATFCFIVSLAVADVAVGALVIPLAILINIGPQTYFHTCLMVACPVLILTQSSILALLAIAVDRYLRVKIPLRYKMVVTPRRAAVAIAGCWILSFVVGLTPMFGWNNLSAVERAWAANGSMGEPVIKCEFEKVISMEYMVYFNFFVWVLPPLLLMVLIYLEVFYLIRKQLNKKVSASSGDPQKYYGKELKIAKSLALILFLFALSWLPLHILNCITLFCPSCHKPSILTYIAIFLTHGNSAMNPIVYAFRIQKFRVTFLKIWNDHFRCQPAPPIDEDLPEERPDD
Protocol: Adenosine A1 Receptor Functional Assay (A1GAL2)
as §1, with “adenosine A1” for “adenosine A2a”, “a 4” for “a 15”, “nM r-PIA” for “nM NECA”, “(Sigma P4532)/1 uM Forskolin (Sigma F3917)” for “(Sigma E2387)”, “of r-PIA in 1 uM Forskolin,” for “of NECA,”, “Forskolin” for “Forskolin (Sigma F3917)”

T1 sequence (P29274 whole entry): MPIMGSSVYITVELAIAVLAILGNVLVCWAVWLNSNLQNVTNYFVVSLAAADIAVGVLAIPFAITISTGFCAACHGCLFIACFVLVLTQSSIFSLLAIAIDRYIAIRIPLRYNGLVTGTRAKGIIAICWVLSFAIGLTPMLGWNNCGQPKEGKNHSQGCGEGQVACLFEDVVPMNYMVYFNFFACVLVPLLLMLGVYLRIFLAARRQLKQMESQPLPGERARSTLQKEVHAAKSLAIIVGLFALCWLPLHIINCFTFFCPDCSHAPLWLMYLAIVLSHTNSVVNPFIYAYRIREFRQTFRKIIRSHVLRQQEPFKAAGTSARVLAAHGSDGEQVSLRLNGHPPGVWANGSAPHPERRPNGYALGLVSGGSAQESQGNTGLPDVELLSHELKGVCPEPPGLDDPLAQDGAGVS

Ki [1] [nM]	Ki [2] [nM]	Compound
89.4	1150	N#Cc1cccc(-c2nc(N)c3cc(Nc4ccccc4)sc3n2)c1 [Example 1, (4-Amino-6-phenylamino-thieno[2,3-d]pyrimidin-2-yl)-benzonitrile]
11.4	269	COc1ccccc1Nc1cc2c(N)nc(-c3cccc(C#N)c3)nc2s1 [Example 2, 3-[4-Amino-6-(2-methoxy-phenylamino)-thieno[2,3-d]pyrimidin-2-yl]-benzonitrile]
103	569	COc1ccccc1N(C)c1cc2c(N)nc(-c3cccc(C#N)c3)nc2s1 [Example 3, 3-{4-Amino-6-[(2-methoxy-phenyl)-methyl-amino]-thieno[2,3-d]pyrimidin-2-yl}-benzonitrile]
84.4	765	N#Cc1cccc(-c2nc(N)c3cc(Nc4ccccn4)sc3n2)c1 [Example 4, 3-[4-Amino-6-(pyridin-2-ylamino)-thieno[2,3-d]pyrimidin-2-yl]-benzonitrile]
127	2330	CN(c1ccccc1)c1cc2c(N)nc(-c3cccc(C#N)c3)nc2s1 [Example 5, 3-[4-Amino-6-(methyl-phenyl-amino)-thieno[2,3-d]pyrimidin-2-yl]-benzonitrile]
261	2370	COc1cccc(Nc2cc3c(N)nc(-c4cccc(C#N)c4)nc3s2)c1 [Example 6, 3-[4-Amino-6-(3-methoxy-phenylamino)-thieno[2,3-d]pyrimidin-2-yl]-benzonitrile-hydrochloride]
230	2270	N#Cc1cccc(-c2nc(N)c3cc(Nc4ccccc4Cl)sc3n2)c1 [Example 7, 3-[4-Amino-6-(2-chloro-phenylamino)-thieno[2,3-d]pyrimidin-2-yl]-benzonitrile-hydrochloride]
316	2770	CN(c1cc2c(N)nc(-c3cccc(C#N)c3)nc2s1)c1ccccc1Cl [Example 8, 3-{4-Amino-6-[(2-chloro-phenyl)-methyl-amino]-thieno[2,3-d]pyrimidin-2-yl}-benzonitrile]
273	2540	COc1cccc(N(C)c2cc3c(N)nc(-c4cccc(C#N)c4)nc3s2)c1 [Example 9, 3-{4-Amino-6-[(3-methoxy-phenyl)-methyl-amino]-thieno[2,3-d]pyrimidin-2-yl}-benzonitrile-hydrochloride]
131	2600	N#Cc1cccc(-c2nc(N)c3cc(Nc4ccccc4F)sc3n2)c1 [Example 10, 3-[4-Amino-6-(2-fluoro-phenylamino)-thieno[2,3-d]pyrimidin-2-yl]-benzonitrile]
398	5230	CN(c1cccc(F)c1)c1cc2c(N)nc(-c3cccc(C#N)c3)nc2s1 [Example 11, 3-{4-Amino-6-[(3-fluoro-phenyl)-methyl-amino]-thieno[2,3-d]pyrimidin-2-yl}-benzonitrile]
15.7	358	N#Cc1cccc(-c2nc(N)c3cc(S(=O)(=O)c4ccccc4)sc3n2)c1 [Example 12, 3-(4-Amino-6-benzenesulfonyl-thieno[2,3-d]pyrimidin-2-yl)-benzonitrile]
